Assay results taken from US20080146617A1, “Methods of treating inflammatory diseases” (Roche Palo Alto LLC, priority 2006, published 2008).
Where two headings read alike, the source gives them in different places.

Tests used:
Assay in all cases: KinomeScan kinase profiling
Type in all cases: binding
[1] = target: T1, ERBB4 (Homo sapiens, UniProt Q15303)
T1 construct: purchased Ambit Biosciences (San Diego, Calif.)
From the text: (§1) The selectivity of a given CK1δ, CK1ε or CK1δ-CK1ε inhibitor compound can be determined by testing the compound against a panel of known kinases. An example of such a kinase profiling technology is the “KinomeScan” from Ambit Biosciences in which compounds can be screened for their modulatory activities against more than 200 known kinases.

[2] = target: T2, RIPK2 (Homo sapiens, UniProt O43353)
T2 construct: purchased Ambit Biosciences
From the text: as §1

[3] = target: T3, FES (Homo sapiens, UniProt P07332)
T3 construct: purchased Ambit Biosciences (San Diego, Calif.)
From the text: as §1

[4] = target: T4, PAK1 (Homo sapiens, UniProt Q13153)
T4 construct: purchased Ambit Biosciences (San Diego, Calif.)
From the text: as §1

[5] = target: T5, EPHA8 (Homo sapiens, UniProt P29322)
T5 construct: purchased Ambit Biosciences (San Diego, Calif.)
From the text: as §1

[6] = target: T6, PAK6 (Homo sapiens, UniProt Q9NQU5)
T6 construct: purchased Ambit Biosciences (San Diego, Calif.)
From the text: as §1

[7] = target: T7, CSNK1G2 (Homo sapiens, UniProt P78368)
T7 construct: purchased Ambit Biosciences (San Diego, Calif.)
From the text: as §1

[8] = target: T8, BIKE (Homo sapiens, UniProt Q9NSY1)
T8 construct: purchased Ambit Biosciences (San Diego, Calif.)
From the text: as §1

[9] = target: T9, AAK1 (Homo sapiens, UniProt Q2M2I8)
T9 construct: purchased Ambit Biosciences (San Diego, Calif.)
From the text: as §1

[10] = target: T10, IGF1R (Homo sapiens, UniProt P08069)
T10 construct: purchased Ambit Biosciences (San Diego, Calif.)
From the text: as §1

[11] = target: T11, TIE2 (Homo sapiens, UniProt Q02763)
T11 construct: purchased Ambit Biosciences
From the text: as §1

[12] = target: T12, INSR (Homo sapiens, UniProt P06213)
T12 construct: purchased Ambit Biosciences (San Diego, Calif.)
From the text: as §1

[13] = target: T13, JNK1 (Homo sapiens, UniProt P45983)
T13 construct: purchased Ambit Biosciences (San Diego, Calif.)
From the text: as §1

[14] = target: T14, NEK6 (Homo sapiens, UniProt Q9HC98)
T14 construct: purchased Ambit Biosciences (San Diego, Calif.)
From the text: as §1

[15] = target: T15, FYN (Homo sapiens, UniProt P06241)
T15 construct: purchased Ambit Biosciences (San Diego, Calif.)
From the text: as §1

[16] = target: T16, ABL1 (Homo sapiens, UniProt P00519)
T16 construct: purchased Ambit Biosciences (San Diego, Calif.)
From the text: as §1

[17] = target: T17, CSNK2A1 (Homo sapiens, UniProt P68400)
T17 construct: purchased Ambit Biosciences (San Diego, Calif.)
From the text: as §1

[18] = target: T18, JNK3 (Homo sapiens, UniProt P53779)
T18 construct: purchased Ambit Biosciences (San Diego, Calif.)
From the text: as §1

[19] = target: T19, PDGFRA (Homo sapiens, UniProt P16234)
T19 construct: purchased Ambit Biosciences (San Diego, Calif.)
From the text: as §1

[20] = target: T20, CAMK2A (Homo sapiens, UniProt Q9UQM7)
T20 construct: purchased Ambit Biosciences (San Diego, Calif.)
From the text: as §1

[21] = target: T21, PDGFRB (Homo sapiens, UniProt P09619)
T21 construct: purchased Ambit Biosciences (San Diego, Calif.)
From the text: as §1

[22] = target: T22, STK17A (Homo sapiens, UniProt Q9UEE5)
T22 construct: purchased Ambit Biosciences
From the text: as §1

[23] = target: T23, FLT3 (Homo sapiens, UniProt P36888)
T23 construct: purchased Ambit Biosciences (San Diego, Calif.)
From the text: as §1

[24] = target: T24, ITK (Homo sapiens, UniProt Q08881)
T24 construct: purchased Ambit Biosciences (San Diego, Calif.)
From the text: as §1

[25] = target: T25, PHKG2 (Homo sapiens, UniProt P15735)
T25 construct: purchased Ambit Biosciences (San Diego, Calif.)
From the text: as §1

[26] = target: T26, FRK (Homo sapiens, UniProt P42685)
T26 construct: purchased Ambit Biosciences (San Diego, Calif.)
From the text: as §1

[27] = target: T27, TXK (Homo sapiens, UniProt P42681)
T27 construct: purchased Ambit Biosciences
From the text: as §1

[28] = target: T28, p38-gamma (Homo sapiens, UniProt P53778)
T28 construct: purchased Ambit Biosciences (San Diego, Calif.)
From the text: as §1

[29] = target: T29, VEGFR2 (Homo sapiens, UniProt P35968)
T29 construct: purchased Ambit Biosciences (San Diego, Calif.)
From the text: as §1

[30] = target: T30, CAMKK2 (Homo sapiens, UniProt Q96RR4)
T30 construct: purchased Ambit Biosciences (San Diego, Calif.)
From the text: as §1

[31] = target: T31, PAK7/PAK5 (Homo sapiens, UniProt Q9P286)
T31 construct: purchased Ambit Biosciences (San Diego, Calif.)
From the text: as §1

[32] = target: T32, FER (Homo sapiens, UniProt P16591)
T32 construct: purchased Ambit Biosciences (San Diego, Calif.)
From the text: as §1

[33] = target: T33, LTK (Homo sapiens, UniProt P29376)
T33 construct: purchased Ambit Biosciences (San Diego, Calif.)
From the text: as §1

[34] = target: T34, FLT4 (Homo sapiens, UniProt P35916)
T34 construct: purchased Ambit Biosciences (San Diego, Calif.)
From the text: as §1

[35] = target: T35, PIM2 (Homo sapiens, UniProt Q9P1W9)
T35 construct: purchased Ambit Biosciences (San Diego, Calif.)
From the text: as §1

[36] = target: T36, DMPK (Homo sapiens, UniProt Q09013)
T36 construct: purchased Ambit Biosciences (San Diego, Calif.)
From the text: as §1

[37] = target: T37, CAMK2G (Homo sapiens, UniProt Q13555)
T37 construct: purchased Ambit Biosciences (San Diego, Calif.)
From the text: as §1

[38] = target: T38, PKMYT1 (Homo sapiens, UniProt Q99640)
T38 construct: purchased Ambit Biosciences (San Diego, Calif.)
From the text: as §1

[39] = target: T39, EPHA4 (Homo sapiens, UniProt P54764)
T39 construct: purchased Ambit Biosciences (San Diego, Calif.)
From the text: as §1

[40] = target: T40, CLK4 (Homo sapiens, UniProt Q9HAZ1)
T40 construct: purchased Ambit Biosciences (San Diego, Calif.)
From the text: as §1

Measured: inhibition at 10 µM

T15 sequence (P06241 whole entry): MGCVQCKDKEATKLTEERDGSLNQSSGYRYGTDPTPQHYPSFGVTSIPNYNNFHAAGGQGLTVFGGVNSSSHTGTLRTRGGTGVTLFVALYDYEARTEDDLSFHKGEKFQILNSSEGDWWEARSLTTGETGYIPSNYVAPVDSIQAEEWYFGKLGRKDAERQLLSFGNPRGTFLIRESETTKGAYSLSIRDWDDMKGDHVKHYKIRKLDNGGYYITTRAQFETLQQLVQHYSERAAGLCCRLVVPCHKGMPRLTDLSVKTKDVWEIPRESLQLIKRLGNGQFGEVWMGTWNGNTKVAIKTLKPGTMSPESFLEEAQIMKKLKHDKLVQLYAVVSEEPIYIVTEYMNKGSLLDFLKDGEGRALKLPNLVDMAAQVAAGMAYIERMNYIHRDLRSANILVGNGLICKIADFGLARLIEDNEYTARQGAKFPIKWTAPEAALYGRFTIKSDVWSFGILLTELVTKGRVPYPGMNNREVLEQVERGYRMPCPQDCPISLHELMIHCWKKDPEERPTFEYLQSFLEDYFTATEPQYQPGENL
T37 sequence (Q13555 whole entry): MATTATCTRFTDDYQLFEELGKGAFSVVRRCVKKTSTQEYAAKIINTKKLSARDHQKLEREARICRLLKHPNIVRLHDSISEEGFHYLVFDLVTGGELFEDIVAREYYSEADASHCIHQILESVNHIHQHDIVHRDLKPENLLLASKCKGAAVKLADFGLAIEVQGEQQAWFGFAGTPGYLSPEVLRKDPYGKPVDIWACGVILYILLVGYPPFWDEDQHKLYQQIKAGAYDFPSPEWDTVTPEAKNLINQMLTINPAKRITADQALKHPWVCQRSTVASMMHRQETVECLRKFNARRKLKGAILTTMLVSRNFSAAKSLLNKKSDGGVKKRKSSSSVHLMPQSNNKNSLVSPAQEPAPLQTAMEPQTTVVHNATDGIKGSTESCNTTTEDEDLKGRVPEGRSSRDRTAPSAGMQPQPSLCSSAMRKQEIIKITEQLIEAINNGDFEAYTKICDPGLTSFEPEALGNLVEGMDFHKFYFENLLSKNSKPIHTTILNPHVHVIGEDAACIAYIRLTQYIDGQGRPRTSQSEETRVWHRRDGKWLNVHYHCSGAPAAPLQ
T3 sequence (P07332 whole entry): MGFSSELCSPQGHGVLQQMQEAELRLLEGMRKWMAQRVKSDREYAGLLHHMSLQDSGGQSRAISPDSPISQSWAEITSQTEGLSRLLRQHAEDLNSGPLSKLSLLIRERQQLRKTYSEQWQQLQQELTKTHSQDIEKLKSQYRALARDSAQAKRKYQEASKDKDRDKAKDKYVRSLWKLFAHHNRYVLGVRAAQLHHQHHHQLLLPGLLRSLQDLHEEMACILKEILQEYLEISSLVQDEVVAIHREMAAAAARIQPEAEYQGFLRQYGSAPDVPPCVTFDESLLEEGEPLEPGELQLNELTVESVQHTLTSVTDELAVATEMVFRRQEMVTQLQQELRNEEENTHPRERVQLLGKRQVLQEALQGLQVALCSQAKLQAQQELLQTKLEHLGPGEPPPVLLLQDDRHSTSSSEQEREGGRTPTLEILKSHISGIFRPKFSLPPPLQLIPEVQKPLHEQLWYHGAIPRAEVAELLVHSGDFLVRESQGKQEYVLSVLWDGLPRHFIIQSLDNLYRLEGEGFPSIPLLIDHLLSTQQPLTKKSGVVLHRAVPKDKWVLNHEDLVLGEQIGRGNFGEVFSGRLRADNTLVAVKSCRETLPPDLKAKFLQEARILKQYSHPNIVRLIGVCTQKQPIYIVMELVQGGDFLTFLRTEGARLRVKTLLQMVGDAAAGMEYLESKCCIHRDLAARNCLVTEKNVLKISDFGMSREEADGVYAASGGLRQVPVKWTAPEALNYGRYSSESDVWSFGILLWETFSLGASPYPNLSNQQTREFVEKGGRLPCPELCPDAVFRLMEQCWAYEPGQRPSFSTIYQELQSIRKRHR
T36 sequence (Q09013 whole entry): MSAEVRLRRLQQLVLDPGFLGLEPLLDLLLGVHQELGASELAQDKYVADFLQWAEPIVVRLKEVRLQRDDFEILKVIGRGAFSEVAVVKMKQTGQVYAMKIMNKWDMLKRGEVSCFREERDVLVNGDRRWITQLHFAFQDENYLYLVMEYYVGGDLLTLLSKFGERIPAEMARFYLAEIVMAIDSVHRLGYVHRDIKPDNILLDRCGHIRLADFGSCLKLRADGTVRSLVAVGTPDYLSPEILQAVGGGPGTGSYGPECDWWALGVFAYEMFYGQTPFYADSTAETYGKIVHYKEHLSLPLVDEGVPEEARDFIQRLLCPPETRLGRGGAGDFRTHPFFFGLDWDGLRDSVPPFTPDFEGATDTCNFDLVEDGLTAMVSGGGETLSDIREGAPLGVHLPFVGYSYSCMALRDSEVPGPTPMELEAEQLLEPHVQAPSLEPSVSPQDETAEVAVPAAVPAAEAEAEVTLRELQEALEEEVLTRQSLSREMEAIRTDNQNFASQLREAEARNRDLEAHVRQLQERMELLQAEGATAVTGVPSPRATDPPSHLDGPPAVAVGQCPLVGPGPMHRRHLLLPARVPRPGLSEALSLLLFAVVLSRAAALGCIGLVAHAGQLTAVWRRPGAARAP
T19 sequence (P16234 24-1089): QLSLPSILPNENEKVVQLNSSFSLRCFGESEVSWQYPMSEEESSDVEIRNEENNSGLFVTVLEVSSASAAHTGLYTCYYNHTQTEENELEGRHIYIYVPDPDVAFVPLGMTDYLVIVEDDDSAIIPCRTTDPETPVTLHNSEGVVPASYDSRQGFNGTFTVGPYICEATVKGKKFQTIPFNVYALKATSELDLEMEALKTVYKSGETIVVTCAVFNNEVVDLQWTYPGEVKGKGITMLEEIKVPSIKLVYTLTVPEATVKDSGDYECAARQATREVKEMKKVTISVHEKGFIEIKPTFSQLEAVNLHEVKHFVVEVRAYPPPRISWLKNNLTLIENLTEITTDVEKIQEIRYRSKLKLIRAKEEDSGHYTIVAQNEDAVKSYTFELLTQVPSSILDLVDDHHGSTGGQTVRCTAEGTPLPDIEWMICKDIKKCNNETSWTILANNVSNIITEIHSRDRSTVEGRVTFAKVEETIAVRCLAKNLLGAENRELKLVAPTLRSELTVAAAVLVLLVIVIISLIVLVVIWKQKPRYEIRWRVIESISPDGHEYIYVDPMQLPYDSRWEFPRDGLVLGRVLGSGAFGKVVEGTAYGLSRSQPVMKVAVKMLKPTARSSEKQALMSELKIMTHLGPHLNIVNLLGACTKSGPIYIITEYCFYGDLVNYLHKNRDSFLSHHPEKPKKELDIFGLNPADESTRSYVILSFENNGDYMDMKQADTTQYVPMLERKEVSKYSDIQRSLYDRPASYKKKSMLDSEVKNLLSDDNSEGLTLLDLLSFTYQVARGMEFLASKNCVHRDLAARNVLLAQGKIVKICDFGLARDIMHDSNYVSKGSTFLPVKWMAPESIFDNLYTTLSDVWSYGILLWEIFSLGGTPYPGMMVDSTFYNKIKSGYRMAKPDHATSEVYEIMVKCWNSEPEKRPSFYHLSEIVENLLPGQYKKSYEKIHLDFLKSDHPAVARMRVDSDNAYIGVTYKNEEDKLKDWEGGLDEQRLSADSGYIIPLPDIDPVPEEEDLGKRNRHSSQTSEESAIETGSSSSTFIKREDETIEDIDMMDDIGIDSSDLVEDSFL
T34 sequence (P35916 25-1363): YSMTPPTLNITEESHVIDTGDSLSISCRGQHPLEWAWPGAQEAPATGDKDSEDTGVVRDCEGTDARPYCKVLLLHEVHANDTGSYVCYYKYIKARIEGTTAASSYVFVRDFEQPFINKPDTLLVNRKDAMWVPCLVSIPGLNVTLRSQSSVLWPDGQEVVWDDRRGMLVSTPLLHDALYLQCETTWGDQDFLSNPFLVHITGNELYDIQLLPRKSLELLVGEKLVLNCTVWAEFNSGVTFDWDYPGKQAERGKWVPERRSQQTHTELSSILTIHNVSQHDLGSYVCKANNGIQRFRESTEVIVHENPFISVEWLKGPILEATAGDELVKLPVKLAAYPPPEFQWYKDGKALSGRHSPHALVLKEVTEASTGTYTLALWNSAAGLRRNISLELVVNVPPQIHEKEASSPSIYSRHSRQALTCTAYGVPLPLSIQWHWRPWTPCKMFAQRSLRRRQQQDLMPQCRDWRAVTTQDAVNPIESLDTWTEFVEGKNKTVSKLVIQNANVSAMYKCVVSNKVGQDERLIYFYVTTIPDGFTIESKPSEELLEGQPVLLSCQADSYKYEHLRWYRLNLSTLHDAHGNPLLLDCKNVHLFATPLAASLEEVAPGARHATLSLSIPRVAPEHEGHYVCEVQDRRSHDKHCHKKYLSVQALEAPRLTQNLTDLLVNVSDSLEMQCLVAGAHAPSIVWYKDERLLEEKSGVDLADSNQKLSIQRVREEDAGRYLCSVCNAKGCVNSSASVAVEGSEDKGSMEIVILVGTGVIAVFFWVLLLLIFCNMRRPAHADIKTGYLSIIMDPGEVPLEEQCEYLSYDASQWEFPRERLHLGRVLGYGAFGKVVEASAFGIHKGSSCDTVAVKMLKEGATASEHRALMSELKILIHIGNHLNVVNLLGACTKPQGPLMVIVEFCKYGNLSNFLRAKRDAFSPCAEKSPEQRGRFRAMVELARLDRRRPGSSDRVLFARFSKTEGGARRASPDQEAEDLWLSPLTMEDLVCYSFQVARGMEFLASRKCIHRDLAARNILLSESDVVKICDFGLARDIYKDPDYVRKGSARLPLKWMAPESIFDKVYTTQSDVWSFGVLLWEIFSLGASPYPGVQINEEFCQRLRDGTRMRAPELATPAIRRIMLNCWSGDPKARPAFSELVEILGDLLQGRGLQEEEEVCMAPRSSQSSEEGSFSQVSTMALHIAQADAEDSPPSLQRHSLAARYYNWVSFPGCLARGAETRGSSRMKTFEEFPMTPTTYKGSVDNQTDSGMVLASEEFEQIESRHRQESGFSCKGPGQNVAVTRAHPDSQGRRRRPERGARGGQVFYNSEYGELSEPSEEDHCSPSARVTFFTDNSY

NC(=O)c1ccc(-c2nc(-c3ccc4c(c3)OCCO4)c(-c3ccccn3)[nH]2)cc1 [D4476, 4-[4-(2,3-Dihydro-benzo[1,4]dioxin-6-yl)-5-pyridin-2-yl-1H-imidazol-2-yl]benzamide]
< 50%: [1] | [2] | [3] | [4] | [5] | [6] | [7] | [8] | [9] | [10] | [11] | [12] | [13] | [14] | [15] | [16] | [17] | [18] | [19] | [20] | [21] | [22] | [23] | [24] | [25] | [26] | [27] | [28] | [29] | [30] | [31] | [32] | [33] | [34] | [35] | [36] | [37] | [38] | [39] | [40]

NC(=O)c1ccc(-c2nc(-c3ccc4c(c3)OCO4)c(-c3ccccn3)[nH]2)cc1 [SB431542, 4-(4-benzo-[1,3]dioxol-5-yl-5-pyridin-2-yl-1H-imidazol-2-yl)benzamide]
< 50%: [1] | [2] | [3] | [4] | [5] | [6] | [7]; 10 μM, CSNK1G2, read-out: % Inhibition | [8] | [9] | [10] | [11] | [12] | [13] | [14] | [15] | [16] | [17] | [18] | [19] | [20] | [21] | [22] | [23] | [24] | [25] | [26] | [27] | [28] | [29] | [30] | [31] | [32] | [33] | [34] | [35] | [36] | [37] | [38] | [39] | [40]
